Literature values, collected in patent US8716506B2, “Xylitol esters and ethers applied as alternative emulsifiers, solvents, co-emulsifiers and preservative systems for pharmaceutical and cosmetic products” (priority 2008, dated 2014).

Assays:
[1] = system: Streptococcus pneumoniae; settings: concentration of 5%
[2] = system: Haemophilus influenzae; settings: concentration of 5%
[3] = system: S. pneumoniae; settings: concentration of 5%

## CC1(C)C(=O)N(CO)C(=O)N1CO [DMDM hydantoin, 1,3-Dimethylo1-5,5-dimethyl hydantoin]
De Groot and collaborators
  volunteers with hypersensitivity in contact test: 57%

## C=O [formaldehyde, Formaldehyde (methanal)]
Clinical tests, even in concentrations of 30 ppm of free formaldehyde
  volunteers with contact hypersensitizing: 1-9%

## OC[C@@H](O)[C@H](O)[C@@H](O)CO [xylitol]
[1]
  growth inhibition: inhibited the growth
[2]
  adherence levels in epithelial nasopharyngeal cells: reduced the adherence levels
[3]
  adherence levels in epithelial nasopharyngeal cells: reduced the adherence levels
